Reference: patent US20240100065A1, “METHODS FOR TREATING RECEPTOR-INTERACTING PROTEIN KINASE 1-MEDIATED DISEASES” (Genzyme Corporation, priority 2022, published 2024)
Read-outs that look alike come from different tables or passages of the source.

Tests used:
[1] = target: T1, pS166-RIPK1 in human PBMC lysates (Homo sapiens, UniProt Q13546); experiment: Inhibition of pS166-RIPK1 in PBMC lysates (peripheral target engagement); type: in vivo; settings: for pS166-RIPK1 percent change from baseline: Day15-T24h
T1 construct: Human PBMC are a primary cell type that express endogenous RIPK kinase; endogenous in cells; host or cells: human PBMC isolated from blood of healthy participants
T1 sequence (Q13546 1-671): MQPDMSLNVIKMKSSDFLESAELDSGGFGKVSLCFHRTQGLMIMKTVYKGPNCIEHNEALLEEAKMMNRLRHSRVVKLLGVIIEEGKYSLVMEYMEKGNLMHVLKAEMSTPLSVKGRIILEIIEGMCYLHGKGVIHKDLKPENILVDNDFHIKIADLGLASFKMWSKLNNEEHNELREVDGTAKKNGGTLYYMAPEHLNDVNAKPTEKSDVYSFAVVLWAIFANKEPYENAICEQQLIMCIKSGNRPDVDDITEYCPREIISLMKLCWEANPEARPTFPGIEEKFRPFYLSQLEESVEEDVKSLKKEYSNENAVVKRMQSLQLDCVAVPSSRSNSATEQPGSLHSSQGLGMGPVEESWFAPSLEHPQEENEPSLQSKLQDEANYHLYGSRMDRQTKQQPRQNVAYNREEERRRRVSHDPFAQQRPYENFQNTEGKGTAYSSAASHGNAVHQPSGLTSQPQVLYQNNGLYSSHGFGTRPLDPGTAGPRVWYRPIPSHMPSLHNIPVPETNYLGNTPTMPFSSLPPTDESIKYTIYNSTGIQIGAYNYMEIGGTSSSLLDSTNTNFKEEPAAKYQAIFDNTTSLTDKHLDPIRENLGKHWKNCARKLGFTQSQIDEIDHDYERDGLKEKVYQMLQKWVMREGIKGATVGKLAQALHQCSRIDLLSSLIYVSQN
Source text: Activity of RIPK1 when stimulated can be detected by an increase in autophosphorylation at serine 166 in the RIPK1 protein. Human PBMC are a primary cell type that express endogenous RIPK kinase. Therefore, the ability of Compound 1 to inhibit RIPK1 kinase activity, as measured by the inhibition of pS166-RIPK1 in prepared PBMC lysates isolated from blood samples, was investigated to assess the peripheral target engagement; pS166-RIPK1 levels in human PBMC lysates and percentage of change from baseline were calculated. In Part 1a study, six blood samples (at pre-dose, at 1, 3, 5, 8 hours on Day 1, and at 24 hours on Day 2) for pS166-RIPK1 level were collected per participant. In Part 2 study, blood samples were collected at timepoint (predose/baseline, D7 and D14 T0 (prior to dosing), at the followings timepoints at D14: T1h, T3H, T6H, T8h, then at D15/T24H and D16/T48H. Interquartile range (IQR: Q1-Q3) and geometric mean were added to the usual descriptive statistics.
Levels of pS166-RIPK1 and percentage of change from baseline were summarized descriptively by dose level group and time point. PD population includes participants included in the safety population with no major or critical deviations related to IMP and/or pharmacodynamic (PD) measurements, for whom the PD data are considered sufficient and interpretable will be included in the pharmacodynamic population. Scatterplots were provided for pS166-RIPK1 data versus PK plasma concentration in the PK/PD population. For each participant, the percent change compared to their baseline was evaluated at multiple timepoints up to 24 hours in Part 1a and up to 48 hours in Part 2.
The amount of phosphorylation at serine 166 in RIPK1 protein (pS166-RIPK1) was measured in PBMC lysates prepared from blood samples. Variability in baseline values between individuals was observed across the treatment groups. For each participant, the percent change compared to their baseline was evaluated at multiple timepoints. A negative value for percent change indicates an inhibition of phosphorylation of RIPK1 at-serine166 (pS166-RIPK1).

[2] = CSF concentration, CSF-to-unbound plasma concentration ratio (Part 1b); type: in vivo, healthy adult participants (human); settings: human; for Kp: oral
Protocol: Compound 1 concentrations in CSF were measured after single oral dosing in two dedicated cohorts in Part 1b. Lumbar puncture was performed for CSF collection and only one CSF sample per participant was collected on Day 1. Given the limited number of CSF PK samples that were collected in this study, CSF PK parameters were not determined; instead, Compound 1 concentrations in CSF were reported and concentration ratio between CSF and unbound plasma was calculated.
PK population included all participants exposed to Compound 1 with no major or critical deviations related to Compound 1 and for whom PK data were considered sufficient and interpretable. PK parameters were summarized by descriptive statistics for each dose level group. Distribution of Tmax values was represented by histogram plots for each dose level group. In Part 1a, dose proportionality was assessed using a linear model on Cmax, AUClast and AUC. In Part 2, all PK analyses were performed separately for each regimen (OD and BID). Steady state was assessed on Ctrough using a non-linear model. Accumulation was assessed using a linear model on log-transformed accumulation ratio. Dose proportionality was assessed using a power model on Cmax and AUCtau on Day 1 and Day 14, separately. Variance components of log-transformed Cmax and AUCtau were estimated using a linear model. In Part 1b, CSF concentration was described by dose level group and CSF to plasma unbound concentration ratios calculated were described in the same way. 4β-hydroxycholesterol on Day 14 versus Day 1 pre-dose concentration ratios were summarized using descriptive statistics by dose level group and point estimates with 90% confidence interval (90% CI) for the geometric mean of the log-transformed Day14/Day1 ratio was calculated in Part 2.

[3] = Nonhuman primate toxicology study (NOAEL exposure); type: in vivo; settings: 20 mg BID vs nonhuman primate study
[4] = 6-month rat toxicology study (NOAEL exposure); type: in vivo
[5] = 20 mg QD vs 6-month rat toxicology study

In the case of `CC(C)(C(=O)N1CCOc2c(C#N)cncc2C1)C(F)F` [Compound 1, 4-(3,3-difluoro-2,2-dimethyl-propanoyl)-3,5-dihydro-2H-pyrido[3,4-f] [1,4]oxazepine-9-carbonitrile], the “Median inhibition of pS166-RIPK1” value ([1]; Part 1a 20 mg, 1 hr post dose) is reported as 90.43%, the “Median inhibition of pS166-RIPK1, peak” value ([1]; Part 1a 20 mg, 5 hrs) is reported as 96.63% and the “Median inhibition of pS166-RIPK1, maintained” value ([1]; Part 1a 20 mg, over 24 hours) is reported as “greater than 94%”. The “Peak median inhibition of pS166-RIPK1” value ([1]; Part 1a 30 mg, 3 hr, one replicate) was 91.48%, the “Median inhibition of pS166-RIPK1” value ([1]; Part 1a 30 mg, 24 hours post dose, one replicate) was 80.16% and the “Peak median inhibition of pS166-RIPK1” value ([1]; Part 1a 40 mg, 1 hr post dose, 4 participants) was 86.69%. For the same compound, the “Median inhibition of pS166-RIPK1” value ([1]; Part 1a, all dose groups (10, 20, 30, 40 mg), 1 hour up to 5 hours post dose) was “greater than 80%”, the “pS166-RIPK1 percent change from baseline” value ([1]; Part 2, 15 mg BID) was −80.29% and the “pS166-RIPK1 percent change from baseline” value ([1]; Part 2, 20 mg BID) was −97.76%. The “Inhibition of pS166-RIPK1” value ([1]; Part 2, all dose level groups (10 mg QD to 20 mg BID), Ctrough Day 7 up to 24 hours post-last dosing) was roughly 90%, the Emax at 10 mg ([1]; Part 2 Day 14, 10 mg QD, 6 hours post-last morning dose, n=5, read-out: Median inhibition of pS166-RIPK1, maximal effect) was 99% and the Emax at 15 mg ([1]; Part 2 Day 14, 15 mg BID, 6 hours post-last morning dose, n=7, read-out: Median inhibition of pS166-RIPK1, maximal effect) was 92.8%. It also gave an Emax at 20 mg ([1]; Part 2 Day 14, 20 mg BID, 8 hours post-last morning dose, n=3, read-out: Median inhibition of pS166-RIPK1, maximal effect) of 99.2%, an Emax at 20 mg ([1]; Part 2 Day 14, 20 mg QD, 6 hours post-last morning dose, n=4, read-out: Median inhibition of pS166-RIPK1, maximal effect) of 96.5% and an EC90 ([1]; in vivo in PBMC) of 38 nM. For the same compound, the “CSF/unbound plasma ratio, mean values” [2] was roughly 1.0, the Kp ([2]; CSF / unbound plasma, Part 1b single dose fed, [T1H-T3H], read-out: CSF-to-unbound Plasma concentration ratio, geometric mean) was 0.817 and the Kp ([2]; CSF / unbound plasma, Part 1b single dose fed, [T1H-T3H], read-out: CSF-to-unbound Plasma concentration ratio, mean) was 0.84. For the same compound, the Kp ([2]; CSF / unbound plasma, Part 1b single dose fed, [T1H-T3H], read-out: CSF-to-unbound Plasma concentration ratio, median) was 0.732, the Kp ([2]; CSF / unbound plasma, Part 1b single dose fed, [T4H-T6H], read-out: CSF-to-unbound Plasma concentration ratio, geometric mean) was 0.755 and the Kp ([2]; CSF / unbound plasma, Part 1b single dose fed, [T4H-T6H], read-out: CSF-to-unbound Plasma concentration ratio, mean) was 0.804. It also gave a Kp ([2]; CSF / unbound plasma, Part 1b single dose fed, [T4H-T6H], read-out: CSF-to-unbound Plasma concentration ratio, median) of 0.825, a Kp ([2]; CSF / unbound plasma, Part 1b single dose fed, [T5H-T16H], read-out: CSF-to-unbound Plasma concentration ratio, geometric mean) of 1.27 and a Kp ([2]; CSF / unbound plasma, Part 1b single dose fed, [T5H-T16H], read-out: CSF-to-unbound Plasma concentration ratio, mean) of 1.27. The Kp ([2]; CSF / unbound plasma, Part 1b single dose fed, [T5H-T16H], read-out: CSF-to-unbound Plasma concentration ratio, median) was 1.31, the Kp ([2]; CSF / unbound plasma, time intervals [T1H-T3H] or [T4H-T6H], read-out: Ratio CSF to unbound plasma) was roughly 0.8 and the Kp ([2]; CSF and unbound plasma, read-out: CSF/unbound plasma ratio, mean values) was roughly 1. For the same compound, the Kp ([2]; CSF and unbound plasma, time interval [T8H-T10H], read-out: Ratio CSF to unbound plasma) was roughly 1.3, the “Safety margin relative to the NOAEL exposure” value [3] was 10 fold and the “Human Cmax and AUCtau, fold lower than exposure at NOAEL” value ([4]; 15 mg BID vs 6-month rat toxicology study) was 10 fold. The “Human AUC0-24 h, fold lower than AUC0-24 at rat NOAEL” value ([4]; 20 mg BID vs female rats) was less than 8 fold, the “Human Cmax, fold lower than Cmax at rat NOAEL” value ([4]; 20 mg BID vs female rats) was less than 10 fold and the “Human AUC0-24, fold lower than exposure at NOAEL” value [4, 5] was 17 fold. The “Human Cmax, fold lower than exposure at NOAEL” value [4, 5] was 15 fold, the Cmax ([4]; rat, in vivo, female rats, end of Week 26, 6-month study) was 13.1 µM and the AUC(0-t) ([4]; rat, in vivo, female rats, end of Week 26, 6-month study, read-out: AUC0-24 at the NOAEL) was 126 µM·h.
